Values quoted from earlier work, collected in PMC5346970 (Journal of Medicinal Chemistry, 2017).
Several values for one entry are separate records, joined by “and”; a condition that tells them apart may be missing. Equal entries are not always repeated. Where two headings read alike, the source gives them in different places. Values belong to the molecule of their own block, whether it stands above or below them.

What was measured:
[1] = for conjugate level in blood: 3.6 g daily dose, all six subjects
Alzheimer’s disease = conditions: for mean plasma level three hours post-treatment / mean baseline plasma level at 24 weeks: LC/MS/MS; for mean plasma level three hours post-treatment: 24 weeks
[2] = at 2 h, one individual, single 12 g oral dose
[3] = tested on: cannabinoid receptor 1 (CB1); conditions: repeated experiments after retraction
GSK-3β = conditions: no DTT, 30–90 min incubation
[4] = depending on solvent and method
Aβ = conditions: transmission electron microscopy, in vitro
[5] = tested on: SERCA (sarcoplasmic/endoplasmic reticulum calcium) pump; conditions: previously reported
[6] = tested on: amyloid-β (Aβ) fibril formation; conditions: ThT assay
mutant CFTR (ΔF508 mice) = conditions: 45 mg kg^–1 day^–1 oral; not reproduced by independent lab (ref 139)
[7] = tested on: advanced pancreatic cancer; conditions: 8 g/day oral, steady state on day 3
HAT Gcn5 = conditions: in vitro
[8] = room temperature, neutral pH
[9] = tested on: murine macrophage cells, J774.1; conditions: read-out: cytotoxicity IC50; murine macrophage cell line
[10] = tested on: histone methyltransferase G9a; conditions: counterscreen
[11] = mice fed diets poor in iron
[12] = synthetic 1, rats
CB2 = conditions: repeated experiments after retraction

Molecule: O=S(=O)(O)O [Sulfate]
conjugate level in blood [1]: 8.9 ± 0.7 nmol/L

Molecule: COc1cc(CCC(=O)CC(=O)CCc2ccc(O)c(OC)c2)ccc1O [tetrahydrocurcumin]
mean baseline plasma level at 24 weeks (Alzheimer’s disease): 6.86 ± 1.69 ng/mL
mean plasma level three hours post-treatment (Alzheimer’s disease): 0.00373 ± 0.002 µg/mL

Molecule: (1E,6E)-1,7-bis(4-hydroxy-3-methoxyphenyl)-1,6-heptadiene-3,5-dione [Compound 1]
peak serum level [2]: 57.6 ng/mL and 156 nmol/L
mean baseline plasma level at 24 weeks (Alzheimer’s disease): 2.67 ± 1.69 ng/mL
mean plasma level three hours post-treatment (Alzheimer’s disease): 0.00776 ± 0.00323 µg/mL
plasma level by HPLC (Alzheimer’s disease; one sample, 4 h after a 4 g dose, below assay LLOD): 0.006 µg/mL
inhibition of CB1 [3]: low micromolar inhibitor
IC50 (GSK-3β): 0.066 µM
IC50 (AmpC β-lactamase; with Triton X-100): > 30 µM
IC50 (AmpC β-lactamase; without Triton X-100): 12 µM
pKa, first phenolic proton [4]: 8.5–10.4
pKa, second phenolic proton [4]: 9.5–10.7
effect on aggregation of Aβ (Aβ): does not affect the aggregation
in vitro activity [5]: 5 to 15 µM
IC50 [6]: 1 to 64 µM
effect on phenotypic deficits (mutant CFTR (ΔF508 mice)): ameliorated phenotypic deficits
plasma level [7]: 0.022 to 0.041 µg/mL
inhibition of Gcn5 (HAT Gcn5): failed to inhibit
solubility in water [8]: practically insoluble
solubility in water (estimate) ([8]; confounded by aggregation): 1 to 10 µg/mL
IC50 [9]: 31 µM
IC50 (malate dehydrogenase; with Triton X-100): > 30 µM
IC50 (malate dehydrogenase; without Triton X-100): 9 µM
level in blood as reported ([1]; 3.6 g daily, 1 h time point): 0.6 nM
activity versus G9a [10]: failed to show any activity
iron status [11]: inducing a state of overt iron deficiency
t1/2 for loss of parent compound (pH 7.5, rt, aqueous buffer): approximately 20 min
reduction in parent material (samples prepared in clear versus amber glass): 5%
compound degradation (solvolysis in aqueous alkaline buffer, within 30 min): 90%
IC50 (HIV-2 protease; with Triton X-100): > 100 µM
IC50 (HIV-2 protease; without Triton X-100): 9 µM
Papp (Caco-2 model system): 3.18 × 10^–6 ± 1.08 × 10^–6 cm/s
oral bioavailability [12]: less than 1%
activity in FP secondary screen (tau fibril formation): inactive
activity versus PCAF (HAT PCAF; counterscreen): failed to show any activity
inhibition of PCAF (HAT PCAF; in vitro): failed to inhibit
inhibition of CB2 (CB2): low micromolar inhibitor

Further lines, results first:

mean plasma level three hours post-treatment (Alzheimer’s disease): 0.09605 ± 0.026 µg/mL
conjugate level in blood [1]: 15.8 ± 0.9 nmol/L
Molecule: COc1cc(/C=C/C(=O)CC(=O)/C=C/c2ccc(O[C@@H]3O[C@H](C(=O)O)[C@@H](O)[C@H](O)[C@H]3O)c(OC)c2)ccc1O [glucuronidated 1]

mean plasma level three hours post-treatment (Alzheimer’s disease): 0.2982 ± 0.14 µg/mL
Molecule: COc1cc(CCC(=O)CC(=O)CCc2ccc(OC3OC(C(=O)O)C(O)C(O)C3O)c(OC)c2)ccc1O (centres unmarked) [glucuronidated tetrahydrocurcumin]
